# Data reported in patent publication US11590139B2, “Substituted aminopurine compounds, compositions thereof, and methods of treatment therewith” (Signal Pharmaceuticals, LLC, priority 2014, dated 2023).
# System: Lox-IMVI melanoma cell line
# Assay: Lox-IMVI anti-proliferative assay (growth inhibition, Cell Titer-Glo)
# Type: cell-based, human
# Details: Homo sapiens; IC50 activity level in the cell-based Lox-IMVI anti-proliferative assay; read-out: Activity
# Procedure, shortened: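 IC50 values reflect the concentration giving 50% of DMSO-control luminescence after 72 h of treatment, fitted with a four-parameter logistic model. Cells were cultured in RPMI + 10% FBS with compound from 0.5 nM to 10 μM.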
row,Compound,IC50
1,"CS(=O)(=O)N1CCC(Nc2ncc3nc(Nc4c(Cl)cc(Cl)cc4Cl)n([C@H]4CC[C@@H](C(N)=O)CC4)c3n2)CC1 [Example 292, (1s,4s)-4-(2-(1-(methylsulfonyl)piperidin-4-ylamino)-8-(2,4,6-trichlorophenylamino)-9H-purin-9-yl)cyclohexanecarboxamide]",500 to 1000 nM
2,"CS(=O)(=O)N1CCC(Nc2ncc3nc(Nc4c(F)cc(F)cc4Cl)n([C@H]4CC[C@@H](C(N)=O)CC4)c3n2)CC1 [Example 294, (1s,4s)-4-(8-(2-chloro-4,6-difluorophenylamino)-2-(1-(methylsulfonyl)piperidin-4-ylamino)-9H-purin-9-yl)cyclohexanecarboxamide]",> 1000 nM
3,"CS(=O)(=O)N1CCC(Nc2ncc3nc(Nc4ccc(Cl)c(F)c4F)n([C@H]4CC[C@@H](C(N)=O)CC4)c3n2)CC1 [Example 298, (1s,4s)-4-(8-(4-chloro-2,3-difluorophenylamino)-2-(1-(methylsulfonyl)piperidin-4-ylamino)-9H-purin-9-yl)cyclohexanecarboxamide]",> 1000 nM
4,"CS(=O)(=O)N1CCC(Nc2ncc3nc(Nc4ccc(Cl)cc4Cl)n([C@H]4CC[C@@H](C(N)=O)CC4)c3n2)CC1 [Example 299, (1s,4s)-4-(8-(2,4-dichlorophenylamino)-2-(1-(methylsulfonyl)piperidin-4-ylamino)-9H-purin-9-yl)cyclohexanecarboxamide]",> 1000 nM
5,"NC(=O)[C@H]1CC[C@@H](n2c(Nc3c(Cl)cc(Cl)cc3Cl)nc3cnc(N[C@H]4C[C@H](O)C4)nc32)CC1 [Example 300, (1s,4s)-4-(2-((1r,3r)-3-hydroxycyclobutylamino)-8-(2,4,6-trichlorophenylamino)-9H-purin-9-yl)cyclohexanecarboxamide]",500 to 1000 nM
6,"NC(=O)[C@H]1CC[C@@H](n2c(Nc3c(Cl)cc(Cl)cc3Cl)nc3cnc(N[C@@H]4CCOC[C@@H]4F)nc32)CC1 [Example 302, (1S,4s)-4-(2-((3R,4R)-3-fluorotetrahydro-2H-pyran-4-ylamino)-8-(2,4,6-trichlorophenylamino)-9H-purin-9-yl)cyclohexanecarboxamide]",500 to 1000 nM
7,"NC(=O)[C@H]1CC[C@@H](n2c(Nc3c(Cl)cc(Cl)cc3Cl)nc3cnc(N[C@H]4CCOC[C@H]4F)nc32)CC1 [Example 303, (1R,4s)-4-(2-((3S,4S)-3-fluorotetrahydro-2H-pyran-4-ylamino)-8-(2,4,6-trichlorophenylamino)-9H-purin-9-yl)cyclohexanecarboxamide]",< 250 nM
8,"NC(=O)[C@H]1CC[C@@H](n2c(Nc3c(F)cccc3F)nc3cnc(N[C@H]4CCOC[C@H]4F)nc32)CC1 [Example 305, (1R,4s)-4-(8-(2,6-difluorophenylamino)-2-((3S,4S)-3-fluorotetrahydro-2H-pyran-4-ylamino)-9H-purin-9-yl)cyclohexanecarboxamide]",500 to 1000 nM
9,"NC(=O)[C@H]1CC[C@@H](n2c(Nc3c(F)cc(F)cc3F)nc3cnc(N[C@H]4CCOC[C@H]4F)nc32)CC1 [Example 306, (1R,4s)-4-(2-((3S,4S)-3-fluorotetrahydro-2H-pyran-4-ylamino)-8-(2,4,6-trifluorophenylamino)-9H-purin-9-yl)cyclohexanecarboxamide]",250 to 500 nM
10,"NC(=O)[C@H]1CC[C@@H](n2c(Nc3c(F)cc(F)cc3F)nc3cnc(N[C@@H]4CCOC[C@@H]4F)nc32)CC1 [Example 307, (1S,4s)-4-(2-((3R,4R)-3-fluorotetrahydro-2H-pyran-4-ylamino)-8-(2,4,6-trifluorophenylamino)-9H-purin-9-yl)cyclohexanecarboxamide]",> 1000 nM
11,"NC(=O)[C@H]1CC[C@@H](n2c(Nc3ccc(Cl)c(F)c3F)nc3cnc(N[C@H]4C[C@@H](O)C4)nc32)CC1 [Example 310, (1s,4s)-4-(8-(4-chloro-2,3-difluorophenylamino)-2-((1s,3s)-3-hydroxycyclobutylamino)-9H-purin-9-yl)cyclohexanecarboxamide]",> 1000 nM
12,"NC(=O)[C@H]1CC[C@@H](n2c(Nc3c(F)cc(F)cc3F)nc3cnc(N[C@H]4COC[C@@H]4O)nc32)CC1 [Example 311, (1R,4s)-4-(2-((3S,4R)-4-hydroxytetrahydrofuran-3-ylamino)-8-(2,4,6-trifluorophenylamino)-9H-purin-9-yl)cyclohexanecarboxamide]",> 1000 nM
13,"NC(=O)[C@H]1CC[C@@H](n2c(Nc3ccc(Cl)c(F)c3F)nc3cnc(N[C@H]4COC[C@@H]4O)nc32)CC1 [Example 317, (1R,4s)-4-(8-(4-chloro-2,3-difluorophenylamino)-2-((3S,4R)-4-hydroxytetrahydrofuran-3-ylamino)-9H-purin-9-yl)cyclohexanecarboxamide]",500 to 1000 nM
14,"NC(=O)[C@H]1CC[C@@H](n2c(Nc3ccc(Cl)cc3Cl)nc3cnc(N[C@H]4COC[C@@H]4O)nc32)CC1 [Example 319, (1R,4s)-4-(8-(2,4-dichlorophenylamino)-2-((3S,4R)-4-hydroxytetrahydrofuran-3-ylamino)-9H-purin-9-yl)cyclohexanecarboxamide]",> 1000 nM

# More lines, now with the values ahead:
row,IC50,Compound
1,> 1000 nM,"CS(=O)(=O)N1CCC(Nc2ncc3nc(Nc4c(Cl)cccc4Cl)n([C@H]4CC[C@@H](C(N)=O)CC4)c3n2)CC1 [Example 293, (1s,4s)-4-(8-(2,6-dichlorophenylamino)-2-(1-(methylsulfonyl)piperidin-4-ylamino)-9H-purin-9-yl)cyclohexanecarboxamide]"
2,> 1000 nM,"CS(=O)(=O)N1CCC(Nc2ncc3nc(Nc4c(F)cc(Cl)cc4F)n([C@H]4CC[C@@H](C(N)=O)CC4)c3n2)CC1 [Example 295, (1s,4s)-4-(8-(4-chloro-2,6-difluorophenylamino)-2-(1-(methylsulfonyl)piperidin-4-ylamino)-9H-purin-9-yl)cyclohexanecarboxamide]"
3,500 to 1000 nM,"CS(=O)(=O)N1CCC(Nc2ncc3nc(Nc4c(F)cc(Cl)cc4Cl)n([C@H]4CC[C@@H](C(N)=O)CC4)c3n2)CC1 [Example 296, (1s,4s)-4-(8-(2,4-dichloro-6-fluorophenylamino)-2-(1-(methylsulfonyl)piperidin-4-ylamino)-9H-purin-9-yl)cyclohexanecarboxamide]"
4,> 1000 nM,"CS(=O)(=O)N1CCC(Nc2ncc3nc(Nc4c(Cl)cc(F)cc4Cl)n([C@H]4CC[C@@H](C(N)=O)CC4)c3n2)CC1 [Example 297, (1s,4s)-4-(8-(2,6-dichloro-4-fluorophenylamino)-2-(1-(methylsulfonyl)piperidin-4-ylamino)-9H-purin-9-yl)cyclohexanecarboxamide]"
5,500 to 1000 nM,"NC(=O)[C@H]1CC[C@@H](n2c(Nc3c(F)cc(Cl)cc3Cl)nc3cnc(N[C@H]4C[C@H](O)C4)nc32)CC1 [Example 301, (1s,4s)-4-(8-(2,4-dichloro-6-fluorophenylamino)-2-((1r,3r)-3-hydroxycyclobutylamino)-9H-purin-9-yl)cyclohexanecarboxamide]"
6,> 1000 nM,"NC(=O)[C@H]1CC[C@@H](n2c(Nc3c(F)cccc3F)nc3cnc(N[C@@H]4CCOC[C@@H]4F)nc32)CC1 [Example 304, (1S,4s)-4-(8-(2,6-difluorophenylamino)-2-((3R,4R)-3-fluorotetrahydro-2H-pyran-4-ylamino)-9H-purin-9-yl)cyclohexanecarboxamide]"
7,< 250 nM,"N#Cc1cc(F)c(Nc2nc3cnc(NC4CCOCC4)nc3n2[C@H]2CC[C@@H](C(N)=O)CC2)c(Cl)c1 [Example 308, (1s,4s)-4-(8-(2-chloro-4-cyano-6-fluorophenylamino)-2-(tetrahydro-2H-pyran-4-ylamino)-9H-purin-9-yl)cyclohexanecarboxamide]"
8,< 250 nM,"N#Cc1cc(F)c(Nc2nc3cnc(NC4CCOCC4)nc3n2[C@H]2CC[C@@H](C(N)=O)CC2)c(F)c1 [Example 309, (1s,4s)-4-(8-(4-cyano-2,6-difluorophenylamino)-2-(tetrahydro-2H-pyran-4-ylamino)-9H-purin-9-yl)cyclohexanecarboxamide]"
9,> 1000 nM,"NC(=O)[C@H]1CC[C@@H](n2c(Nc3c(F)cc(F)cc3Cl)nc3cnc(N[C@H]4COC[C@@H]4O)nc32)CC1 [Example 312, (1R,4s)-4-(8-(2-chloro-4,6-difluorophenylamino)-2-((3S,4R)-4-hydroxytetrahydrofuran-3-ylamino)-9H-purin-9-yl)cyclohexanecarboxamide]"
10,500 to 1000 nM,"NC(=O)[C@H]1CC[C@@H](n2c(Nc3c(Cl)cc(Cl)cc3Cl)nc3cnc(N[C@H]4COC[C@@H]4O)nc32)CC1 [Example 313, (1R,4s)-4-(2-((3S,4R)-4-hydroxytetrahydrofuran-3-ylamino)-8-(2,4,6-trichlorophenylamino)-9H-purin-9-yl)cyclohexanecarboxamide]"
11,> 1000 nM,"NC(=O)[C@H]1CC[C@@H](n2c(Nc3c(F)cc(Cl)cc3Cl)nc3cnc(N[C@@H]4COC[C@H]4O)nc32)CC1 [Example 314, (1S,4s)-4-(8-(2,4-dichloro-6-fluorophenylamino)-2-((3R,4S)-4-hydroxytetrahydrofuran-3-ylamino)-9H-purin-9-yl)cyclohexanecarboxamide]"
12,> 1000 nM,"NC(=O)[C@H]1CC[C@@H](n2c(Nc3c(Cl)cc(F)cc3Cl)nc3cnc(N[C@@H]4COC[C@H]4O)nc32)CC1 [Example 315, (1S,4s)-4-(8-(2,6-dichloro-4-fluorophenylamino)-2-((3R,4S)-4-hydroxytetrahydrofuran-3-ylamino)-9H-purin-9-yl)cyclohexanecarboxamide]"
13,> 1000 nM,"NC(=O)[C@H]1CC[C@@H](n2c(Nc3c(F)cc(Cl)cc3F)nc3cnc(N[C@@H]4COC[C@H]4O)nc32)CC1 [Example 316, (1S,4s)-4-(8-(4-chloro-2,6-difluorophenylamino)-2-((3R,4S)-4-hydroxytetrahydrofuran-3-ylamino)-9H-purin-9-yl)cyclohexanecarboxamide]"
14,> 1000 nM,"NC(=O)[C@H]1CC[C@@H](n2c(Nc3c(F)ccc(Cl)c3F)nc3cnc(N[C@H]4COC[C@@H]4O)nc32)CC1 [Example 318, (1R,4s)-4-(8-(3-chloro-2,6-difluorophenylamino)-2-((3S,4R)-4-hydroxytetrahydrofuran-3-ylamino)-9H-purin-9-yl)cyclohexanecarboxamide]"
